Among the data in patent US8889711B2, “Pyrazolopyridine derivatives as anticancer agent” (Pierre Fabre Medicament, priority 2009, dated 2014) are IC50 values, retold here.

Structures are written as SMILES.

Sequence of ALK kinase (Q9UM73 19-1620): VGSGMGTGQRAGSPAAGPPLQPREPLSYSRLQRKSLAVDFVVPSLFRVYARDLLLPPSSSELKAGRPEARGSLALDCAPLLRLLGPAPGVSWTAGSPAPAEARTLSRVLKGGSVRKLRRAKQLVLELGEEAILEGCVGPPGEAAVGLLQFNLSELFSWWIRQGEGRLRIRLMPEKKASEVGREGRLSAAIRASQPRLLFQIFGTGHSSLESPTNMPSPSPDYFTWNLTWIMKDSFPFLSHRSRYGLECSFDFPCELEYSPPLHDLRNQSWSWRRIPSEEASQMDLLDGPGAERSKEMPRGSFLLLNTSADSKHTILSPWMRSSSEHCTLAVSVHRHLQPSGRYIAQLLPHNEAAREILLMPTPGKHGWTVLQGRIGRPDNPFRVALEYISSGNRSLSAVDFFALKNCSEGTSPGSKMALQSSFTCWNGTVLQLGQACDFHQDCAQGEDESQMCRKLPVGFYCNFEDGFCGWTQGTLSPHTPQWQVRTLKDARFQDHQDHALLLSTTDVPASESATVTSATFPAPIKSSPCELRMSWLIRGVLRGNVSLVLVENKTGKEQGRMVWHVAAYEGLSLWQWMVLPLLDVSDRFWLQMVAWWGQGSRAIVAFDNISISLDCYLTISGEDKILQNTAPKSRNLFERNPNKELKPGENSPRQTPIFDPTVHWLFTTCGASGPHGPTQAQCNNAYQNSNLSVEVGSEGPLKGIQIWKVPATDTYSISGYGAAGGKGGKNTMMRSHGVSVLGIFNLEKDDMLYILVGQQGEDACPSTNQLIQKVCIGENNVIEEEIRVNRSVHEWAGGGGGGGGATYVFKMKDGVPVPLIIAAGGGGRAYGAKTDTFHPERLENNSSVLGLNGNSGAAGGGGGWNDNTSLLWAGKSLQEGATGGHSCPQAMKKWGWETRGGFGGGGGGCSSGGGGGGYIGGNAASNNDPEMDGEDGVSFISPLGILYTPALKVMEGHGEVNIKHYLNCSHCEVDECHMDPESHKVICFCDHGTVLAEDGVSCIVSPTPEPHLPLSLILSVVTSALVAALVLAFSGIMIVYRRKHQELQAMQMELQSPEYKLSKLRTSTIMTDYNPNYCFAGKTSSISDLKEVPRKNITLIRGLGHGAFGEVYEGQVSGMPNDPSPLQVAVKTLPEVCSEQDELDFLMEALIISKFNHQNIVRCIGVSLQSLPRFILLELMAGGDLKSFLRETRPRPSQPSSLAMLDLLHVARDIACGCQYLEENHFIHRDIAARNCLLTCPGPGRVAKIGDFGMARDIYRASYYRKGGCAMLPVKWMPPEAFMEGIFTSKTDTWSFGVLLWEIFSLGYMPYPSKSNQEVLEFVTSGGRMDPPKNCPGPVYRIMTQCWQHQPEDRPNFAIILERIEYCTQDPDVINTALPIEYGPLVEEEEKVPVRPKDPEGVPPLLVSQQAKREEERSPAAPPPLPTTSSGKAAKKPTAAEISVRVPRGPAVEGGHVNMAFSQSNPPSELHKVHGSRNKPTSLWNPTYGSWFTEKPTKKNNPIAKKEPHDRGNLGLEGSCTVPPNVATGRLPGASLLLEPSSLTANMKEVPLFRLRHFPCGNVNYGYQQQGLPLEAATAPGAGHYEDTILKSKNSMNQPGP

The first assay deals with karpas 299 cells. Description: Measurement of inhibition of cell proliferation (Karpas), ATPlite. Conditions: 72 hours. The class given is cell-based. Here is the method:
Measurement of Inhibition of Cell Proliferation (Karpas):
The antiproliferative activities of the compounds were measured using the ATPlite technique (Perkin Elmer).
The non-adhering cells (karpas 299) are seeded in 96-well plates (300 000 cells/ml) on Day 1 at a concentration compatible with logarithmic growth for 72 hours required for evaluation of the compounds. All the cells are treated on Day 1, then placed in an incubator at 37° C. under 5% CO2 atmosphere. Cell viability is evaluated on Day 4 by assay of released ATP, characteristic of viable cells. The IC50 values are determined by non-linear regression on the basis of a sigmoid model of dose/response relationship, Hill's slope coefficient being left variable, performed using GraphPad software sequence with the supplied algorithm.
In general terms: Cellular ATP, detected with luciferase, serves as a proxy for viable cell number.
In the case of `Cc1n[nH]c2nc(-c3ccc(O)cc3F)c(C#N)c(-c3ccc(N4CCNCC4)cc3)c12` [Compound 88], the IC50 (as a rule, the concentration that gives 50% inhibition) was 100 to 1000 nM.
`Cc1n[nH]c2nc(-c3ccc(O)cc3F)c(C#N)c(-c3ccc(N4CCC(N5CCN(C)CC5)CC4)o3)c12` [Compound 142]: the IC50 was more than 10000 nM.
On to `Cc1n[nH]c2nc(-c3ccc(O)cc3F)c(C#N)c(-c3csc(C4CCNCC4)n3)c12` [Compound 152], for which the IC50 was more than 10000 nM.

Still in this assay, the particulars now being: Homo sapiens, KARPAS-299, 72 h.
For the compound `Cc1n[nH]c2cc(-c3ccc(O)cc3F)c(C#N)c(-c3ccco3)c12` [Compound 81], the IC50 lay within 100 to 1000 nM.
Still for that read-out and setting: the result for `CN1CCN(c2ccc(-c3c(C#N)c(-c4ccc(O)cc4)nc4[nH]ncc34)o2)CC1` [Compound 82] reads 1000 to 10000 nM; that for `CN1CCN(c2ccc(-c3c(C#N)c(-c4ccc(O)cc4F)nc4[nH]ncc34)o2)CC1` [Compound 83], 100 to 1000 nM; that for `N#Cc1c(-c2ccc(O)cc2F)nc2[nH]ncc2c1-c1ccc(CN2CCOCC2)o1` [Compound 84], 1000 to 10000 nM.
On the same count and under the same terms, with `CN1CCN(Cc2ccc(-c3c(C#N)c(-c4ccc(O)cc4F)nc4[nH]ncc34)o2)CC1` [Compound 85] the figure was 1000 to 10000 nM; with `N#Cc1c(-c2ccc(O)cc2F)nc2[nH]ncc2c1-c1ccc(N2CCOCC2)o1` [Compound 86], 1000 to 10000 nM.
Still for that read-out and setting: with `Cc1n[nH]c2nc(-c3cc(Br)c(O)c(Br)c3F)c(C#N)c(-c3ccco3)c12` [Compound 90] the figure was more than 10000 nM.
In the case of `N#Cc1c(-c2ccc(O)cc2F)nc2[nH]ncc2c1-c1ccc(N2CCNCC2)cc1` [Compound 91], the IC50 fell in the range of 1000 to 10000 nM.
Consider `Cc1ccc(-c2c(C#N)c(-c3ccc(O)cc3F)nc3[nH]ncc23)o1` [Compound 92], for which the IC50 fell in the range of 100 to 1000 nM.
The same measure, in the same setting: the result for `N#Cc1c(-c2ccc(O)cc2F)nc2[nH]nc(N)c2c1-c1ccco1` [Compound 93] reads 100 to 1000 nM; that for `Cc1c(C#N)c(-c2ccc(O)cc2)nc2[nH]nc(-c3ccc(N4CCNCC4)cc3)c12` [Compound 96], 1000 to 10000 nM.
Same read-out and setting: the result for `N#Cc1c(-c2ccc(O)cc2F)nc2[nH]ncc2c1-c1ccc(-c2nn[nH]n2)cc1` [Compound 101] reads 1000 to 10000 nM.
Same read-out and setting: with `N#Cc1cc2c(-c3ccc(N4CCNCC4)cc3)n[nH]c2nc1-c1ccc(O)cc1` [Compound 102] the figure was 100 to 1000 nM; with `Cc1c(C#N)c(-c2ccc(O)cc2)nc2[nH]nc(-c3ccnc(N4CCN(C)CC4)c3)c12` [Compound 103], more than 10000 nM; with `CN1CCN(c2ccc(-c3c(C#N)c(-c4ccc(O)cc4F)nc4[nH]nc(N)c34)o2)CC1` [Compound 104], 1000 to 10000 nM.
`N#Cc1cc2c(N)n[nH]c2nc1-c1ccc(O)cc1F` [Compound 105] came in with an IC50 of 1000 to 10000 nM.
On the same count and under the same terms, the result for `Cc1c(C#N)c(-c2ccc(O)cc2)nc2[nH]nc(-c3cccc(N4CCNCC4)c3)c12` [Compound 106] reads 1000 to 10000 nM; that for `Cc1c(C#N)c(-c2ccc(O)cc2F)nc2[nH]nc(-c3csc(C4CCNCC4)n3)c12` [Compound 108], 1000 to 10000 nM; that for `N#Cc1c(-c2ccc(O)cc2F)nc2[nH]ncc2c1-c1ccc(N2CCNCC2)o1` [Compound 113], 100 to 1000 nM.
With `Cc1c(C#N)c(-c2ccc(O)cc2F)nc2[nH]nc(N)c12` [Compound 114], the IC50 lay in the range of 1000 to 10000 nM.

The next assay deals with ALK kinase (Homo sapiens, UniProt Q9UM73). Description: Test to measure ALK kinase inhibition (GST-PLCγ1 substrate, anti-phosphotyrosine ELISA, luminescence). The class given is biochemical. The following applies: ALK kinase 180 ng/ml, 250 μM ATP, 30 minutes at 30° C. Here is the method:
Test to Measure ALK Kinase Inhibition
A ViewPlate (Packard) is incubated with the GST-PLCγ1 substrate (purified recombinant form) at 0.1 mg/ml in phosphate buffer (PBS pH 7.4)(100 μl/well) for one hour under shaking. The plate is then saturated with a blocking solution containing 5% bovine serum albumin (BSA) (SIGMA) in PBS buffer pH 7.4.
After adding the inhibitor at the desired final concentration (usual range of 30 μM to 10 nM), the reaction is conducted by adding the ALK kinase at 180 ng/ml in 13 mM Tris reaction buffer pH 7.5 (SIGMA); 6.5 mM MgCl2 (MERCK); 0.65 mM DiThioThreitol (DTT) (ACROS); 39 mM sodium β-glycerophosphate (TCI); 0.65 mM sodium orthovanadate (SIGMA) and 250 μM ATP (SIGMA). Incubation is carried out for 30 minutes at 30° C. under shaking.
After three washings under shaking in 0.1% PBS/Tween-20 buffer (SIGMA), an anti-phosphotyrosine antibody coupled with HRP (UBI) diluted to 1/1000th in PBS/BSA buffer 5 mg/ml, is incubated for one hour under shaking. After three further washings in 0.1% PBS/Tween-20, the wells are incubated two minutes with 100 μl of SuperSignal ELISA mixture (PIERCE).
The signal is read in luminescent mode using a luminometer (MOLECULAR DEVICES SpectraMax M5e).
For orientation: In an ELISA, binding on a coated surface is turned into a signal by an enzyme label.
`Cc1n[nH]c2cc(-c3ccc(O)cc3F)c(C#N)c(-c3ccco3)c12` [Compound 81] displayed an IC50 of less than 100 nM.
Same read-out and setting: the result for `CN1CCN(c2ccc(-c3c(C#N)c(-c4ccc(O)cc4)nc4[nH]ncc34)o2)CC1` [Compound 82] reads 100 to 1000 nM; that for `CN1CCN(c2ccc(-c3c(C#N)c(-c4ccc(O)cc4F)nc4[nH]ncc34)o2)CC1` [Compound 83], less than 100 nM; that for `N#Cc1c(-c2ccc(O)cc2F)nc2[nH]ncc2c1-c1ccc(CN2CCOCC2)o1` [Compound 84], 100 to 1000 nM.
Still for that read-out and setting: the result for `CN1CCN(Cc2ccc(-c3c(C#N)c(-c4ccc(O)cc4F)nc4[nH]ncc34)o2)CC1` [Compound 85] reads 100 to 1000 nM; that for `N#Cc1c(-c2ccc(O)cc2F)nc2[nH]ncc2c1-c1ccc(N2CCOCC2)o1` [Compound 86], less than 100 nM; that for `Cc1n[nH]c2nc(-c3ccc(O)cc3F)c(C#N)c(-c3ccc(N4CCNCC4)cc3)c12` [Compound 88], less than 100 nM.
Same read-out and setting: with `Cc1n[nH]c2nc(-c3cc(Br)c(O)c(Br)c3F)c(C#N)c(-c3ccco3)c12` [Compound 90] the figure was 1000 to 10000 nM; with `N#Cc1c(-c2ccc(O)cc2F)nc2[nH]ncc2c1-c1ccc(N2CCNCC2)cc1` [Compound 91], less than 100 nM; with `Cc1ccc(-c2c(C#N)c(-c3ccc(O)cc3F)nc3[nH]ncc23)o1` [Compound 92], less than 100 nM.
The compound `N#Cc1c(-c2ccc(O)cc2F)nc2[nH]nc(N)c2c1-c1ccco1` [Compound 93] registered an IC50 of more than 10000 nM.
The same measure, in the same setting: with `Cc1c(C#N)c(-c2ccc(O)cc2)nc2[nH]nc(-c3ccc(N4CCNCC4)cc3)c12` [Compound 96] the figure was 100 to 1000 nM.
The same measure, in the same setting: with `N#Cc1c(-c2ccc(O)cc2F)nc2[nH]ncc2c1-c1ccc(-c2nn[nH]n2)cc1` [Compound 101] the figure was 1000 to 10000 nM; with `N#Cc1cc2c(-c3ccc(N4CCNCC4)cc3)n[nH]c2nc1-c1ccc(O)cc1` [Compound 102], less than 100 nM; with `Cc1c(C#N)c(-c2ccc(O)cc2)nc2[nH]nc(-c3ccnc(N4CCN(C)CC4)c3)c12` [Compound 103], 100 to 1000 nM.
On the same count and under the same terms, with `CN1CCN(c2ccc(-c3c(C#N)c(-c4ccc(O)cc4F)nc4[nH]nc(N)c34)o2)CC1` [Compound 104] the figure was less than 100 nM; with `N#Cc1cc2c(N)n[nH]c2nc1-c1ccc(O)cc1F` [Compound 105], 100 to 1000 nM.
`Cc1c(C#N)c(-c2ccc(O)cc2)nc2[nH]nc(-c3cccc(N4CCNCC4)c3)c12` [Compound 106]: the IC50 lay in the range of 100 to 1000 nM.
In turn, `Cc1c(C#N)c(-c2ccc(O)cc2F)nc2[nH]nc(-c3csc(C4CCNCC4)n3)c12` [Compound 108] showed an IC50 of less than 100 nM.
With `N#Cc1c(-c2ccc(O)cc2F)nc2[nH]ncc2c1-c1ccc(N2CCNCC2)o1` [Compound 113], the IC50 was less than 100 nM.
In turn, `Cc1c(C#N)c(-c2ccc(O)cc2F)nc2[nH]nc(N)c12` [Compound 114] displayed an IC50 of 100 to 1000 nM.
Still for that read-out and setting: the result for `Cc1n[nH]c2nc(-c3ccc(O)cc3F)c(C#N)c(-c3ccc(N4CCC(N5CCN(C)CC5)CC4)o3)c12` [Compound 142] reads less than 100 nM; that for `Cc1n[nH]c2nc(-c3ccc(O)cc3F)c(C#N)c(-c3csc(C4CCNCC4)n3)c12` [Compound 152], 100 to 1000 nM.
